From patent publication US8846947B2, “Benzimidazoles and related analogs as sirtuin modulators” (GlaxoSmithKline LLC, priority 2008, dated 2014) come the findings set out here.

Read-outs that look alike come from different tables or passages of the source. Some results are limits rather than exact numbers.

The target of this test is T1, SIRT1 (Homo sapiens, UniProt Q96EB6).
T1 sequence (Q96EB6 1-747): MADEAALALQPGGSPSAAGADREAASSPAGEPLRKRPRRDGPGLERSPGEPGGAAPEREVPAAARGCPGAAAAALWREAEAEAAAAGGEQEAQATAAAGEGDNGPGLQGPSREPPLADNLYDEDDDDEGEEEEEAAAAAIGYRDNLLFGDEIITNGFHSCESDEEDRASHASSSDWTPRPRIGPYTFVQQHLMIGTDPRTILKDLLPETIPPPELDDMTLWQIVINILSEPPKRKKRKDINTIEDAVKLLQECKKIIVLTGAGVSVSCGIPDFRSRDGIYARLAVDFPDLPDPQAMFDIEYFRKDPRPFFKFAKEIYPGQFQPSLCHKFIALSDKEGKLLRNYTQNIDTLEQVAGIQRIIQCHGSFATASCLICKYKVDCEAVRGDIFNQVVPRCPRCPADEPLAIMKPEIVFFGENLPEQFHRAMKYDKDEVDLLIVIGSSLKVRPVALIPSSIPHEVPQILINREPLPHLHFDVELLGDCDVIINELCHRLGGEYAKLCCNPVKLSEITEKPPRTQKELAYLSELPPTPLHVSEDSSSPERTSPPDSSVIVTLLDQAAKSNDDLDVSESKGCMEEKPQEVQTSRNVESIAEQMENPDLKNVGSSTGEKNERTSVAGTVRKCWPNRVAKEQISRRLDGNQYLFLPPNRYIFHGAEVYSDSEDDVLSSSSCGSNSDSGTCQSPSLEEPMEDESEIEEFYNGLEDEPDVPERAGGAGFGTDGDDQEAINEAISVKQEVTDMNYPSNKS
The test is described as follows: Mass spectrometry based SIRT1 deacetylase activation assay (acetylated p53-derived peptide substrate). The test is classed as biochemical.

Setting [1] is: 0.5 μM peptide substrate, 120 μM βNAD+, 10 nM SIRT1, 25 min at 25° C.
The mark [2] stands for this setting: 0.5 μM peptide substrate, 120 μM βNAD+, 10 nM SIRT1, 25 min at 25° C., read-out: EC1.5.

For `O=C(Nc1cccnc1)c1cccc2[nH]c(-c3cccc(N4CCOCC4)n3)nc12` [Compound 389], the EC1.5 result is reported as “B (EC1.5 1-25 uM)” and the “Fold Act. (percent maximum fold activation)” value is given as “A (Fold activation >200%)”.

With `O=C(Nc1cccnc1)c1cccc2[nH]c(-c3cccc(N4CCCCC4)n3)nc12` [Compound 390], the EC1.5 result was “B (EC1.5 1-25 uM)” and the “Fold Act. (percent maximum fold activation)” value is listed as “B (Fold Activation <200%)”.

As to `O=C(Nc1cccc2[nH]c(-c3cccc(N4CCOCC4)c3)nc12)c1cscn1` [Compound 391], the EC1.5 result is on record as “B (EC1.5 1-25 uM)” and the “Fold Act. (percent maximum fold activation)” value is on record as “A (Fold activation >200%)”.

Take `O=C(Nc1cccc2[nH]c(-c3ccnn3-c3ccccc3)nc12)c1cscn1` [Compound 392]: the EC1.5 result is given as “B (EC1.5 1-25 uM)” and the “Fold Act. (percent maximum fold activation)” value is “A (Fold activation >200%)”.

For the compound `Cc1nc(NC(=O)c2cccc3[nH]c(-c4ccc(Cl)cc4C(F)(F)F)nc23)sc1C` [Compound 393], the EC1.5 result is “A (EC1.5<1.0 uM)” and the “Fold Act. (percent maximum fold activation)” value is reported as “A (Fold activation >200%)”.

Regarding `Cc1cc(C)nc(NC(=O)c2cccc3[nH]c(-c4ccc(Cl)cc4C(F)(F)F)nc23)c1` [Compound 394], the EC1.5 entry is listed as “A (EC1.5<1.0 uM)” and the “Fold Act. (percent maximum fold activation)” value is “A (Fold activation >200%)”.

For `Cc1nc(NC(=O)c2cccc3[nH]c(-c4ccnn4-c4ccccc4)nc23)sc1C` [Compound 395], the EC1.5 result is listed as “A (EC1.5<1.0 uM)” and the “Fold Act. (percent maximum fold activation)” value is “A (Fold activation >200%)”.

In the case of `Cc1cnc(NC(=O)c2cccc3[nH]c(-c4cccc(N5CCOCC5)c4)nc23)s1` [Compound 396], the EC1.5 entry is “A (EC1.5<1.0 uM)” and the “Fold Act. (percent maximum fold activation)” value is recorded as “A (Fold activation >200%)”.

In the case of `O=C(NC1CCOC1=O)c1cccc2[nH]c(-c3cccc(N4CCOCC4)c3)nc12` (centres unmarked) [Compound 397], the EC1.5 entry was “B (EC1.5 1-25 uM)” and the “Fold Act. (percent maximum fold activation)” value is “A (Fold activation >200%)”.

As to `Cc1cc(C)nc(NC(=O)c2cccc3[nH]c(-c4cccc(N5CCOCC5)c4)nc23)c1` [Compound 398], under setting [1], the “Fold Act. (percent maximum fold activation)” value is recorded as “A (Fold activation >200%)”. For the same compound, the EC1.5 under setting [2] was below 1000 nM.

For the compound `Cc1cc(NC(=O)c2cccc3[nH]c(-c4cccc(N5CCOCC5)c4)nc23)n(C)n1` [Compound 399], the “Fold Act. (percent maximum fold activation)” value under setting [1] was “A (Fold activation >200%)”. Also, the EC1.5 under setting [2] was below 1000 nM.

`O=C(Nc1nccs1)c1cccc2[nH]c(-c3cn4ccsc4n3)nc12` [Compound 400]: the “Fold Act. (percent maximum fold activation)” value under setting [1] is “A (Fold activation >200%)”. Moreover, the EC1.5 under setting [2] is below 1000 nM.

As for `CC1(C)Cc2cccc(-c3nc4c(C(=O)Nc5cccnc5)cccc4[nH]3)c2O1` [Compound 401], the “Fold Act. (percent maximum fold activation)” value under setting [1] is reported as “A (Fold activation >200%)”. Moreover, under setting [2], the EC1.5 was in the range of 1000 to 25000 nM.

Regarding `CS(=O)(=O)c1cccc(-c2nc3c(C(=O)Nc4nccs4)cccc3[nH]2)c1` [Compound 402], the “Fold Act. (percent maximum fold activation)” value under setting [1] is “A (Fold activation >200%)”. The EC1.5 under setting [2] is below 1000 nM.

Regarding `CS(=O)(=O)c1cccc(-c2nc3c(C(=O)Nc4ccccn4)cccc3[nH]2)c1` [Compound 403], the “Fold Act. (percent maximum fold activation)” value under setting [1] is on record as “A (Fold activation >200%)”. The EC1.5 under setting [2] was in the range of 1000 to 25000 nM.

Turning to `CS(=O)(=O)c1cccc(-c2nc3c(C(=O)Nc4cccnc4)cccc3[nH]2)c1` [Compound 404], the “Fold Act. (percent maximum fold activation)” value under setting [1] was “A (Fold activation >200%)”. Under setting [2], the EC1.5 was below 1000 nM.

For `CS(=O)(=O)c1ccc(-c2nc3c(C(=O)Nc4nccs4)cccc3[nH]2)cc1` [Compound 405], the “Fold Act. (percent maximum fold activation)” value under setting [1] is on record as “B (Fold Activation <200%)”. Besides, under setting [2], the EC1.5 lay within 1000 to 25000 nM.

With `CS(=O)(=O)c1ccc(-c2nc3c(C(=O)Nc4ccccn4)cccc3[nH]2)cc1` [Compound 406], the “Fold Act. (percent maximum fold activation)” value under setting [1] is reported as “A (Fold activation >200%)”. Moreover, the EC1.5 under setting [2] fell in the range of 1000 to 25000 nM.

Turning to `CS(=O)(=O)c1ccc(-c2nc3c(C(=O)Nc4cccnc4)cccc3[nH]2)cc1` [Compound 407], under setting [1], the “Fold Act. (percent maximum fold activation)” value was “B (Fold Activation <200%)”. The EC1.5 under setting [2] is above 25000 nM.

Take `Cc1nc(-c2ccccc2)sc1-c1nc2c(C(=O)Nc3nccs3)cccc2[nH]1` [Compound 408]: the “Fold Act. (percent maximum fold activation)” value under setting [1] is listed as “A (Fold activation >200%)”. The EC1.5 under setting [2] was below 1000 nM.

Consider `Cc1nc(-c2ccccc2)sc1-c1nc2c(C(=O)Nc3ccccn3)cccc2[nH]1` [Compound 409], for which, under setting [1], the “Fold Act. (percent maximum fold activation)” value was “A (Fold activation >200%)”. The EC1.5 under setting [2] was below 1000 nM.

Turning to `Cc1nc(-c2ccccc2)sc1-c1nc2c(C(=O)Nc3cccnc3)cccc2[nH]1` [Compound 410], the “Fold Act. (percent maximum fold activation)” value under setting [1] is “B (Fold Activation <200%)”. Further, the EC1.5 under setting [2] was below 1000 nM.

Turning to `Cc1nc(N2CCOCC2)sc1-c1nc2c(C(=O)Nc3nccs3)cccc2[nH]1` [Compound 411], the “Fold Act. (percent maximum fold activation)” value under setting [1] is “A (Fold activation >200%)”. Under setting [2], the EC1.5 was below 1000 nM.

As to `Cc1nc(N2CCOCC2)sc1-c1nc2c(C(=O)Nc3ccccn3)cccc2[nH]1` [Compound 412], the “Fold Act. (percent maximum fold activation)” value under setting [1] is “A (Fold activation >200%)”. Under setting [2], the EC1.5 was below 1000 nM.

On to `Cc1nc(N2CCOCC2)sc1-c1nc2c(C(=O)Nc3cccnc3)cccc2[nH]1` [Compound 413], for which the “Fold Act. (percent maximum fold activation)” value under setting [1] is listed as “A (Fold activation >200%)”. For the same compound, the EC1.5 under setting [2] was below 1000 nM.

With `O=C(Nc1nccs1)c1cccc2[nH]c(-c3ccc(N4CCOCC4)cc3C(F)(F)F)nc12` [Compound 414], under setting [1], the “Fold Act. (percent maximum fold activation)” value is reported as “A (Fold activation >200%)”. Moreover, under setting [2], the EC1.5 is below 1000 nM.

As to `O=C(Nc1ccccn1)c1cccc2[nH]c(-c3ccc(N4CCOCC4)cc3C(F)(F)F)nc12` [Compound 415], the “Fold Act. (percent maximum fold activation)” value under setting [1] is “A (Fold activation >200%)”. Also, under setting [2], the EC1.5 is below 1000 nM.

Turning to `O=C(Nc1cccc2[nH]c(-c3ccc(Cl)cc3C(F)(F)F)nc12)c1cscn1` [Compound 416], under setting [1], the “Fold Act. (percent maximum fold activation)” value is on record as “B (Fold Activation <200%)”. The EC1.5 under setting [2] fell in the range of 1000 to 25000 nM.

`O=C(Nc1cccc2[nH]c(-c3ccc(Cl)cc3C(F)(F)F)nc12)c1ccccn1` [Compound 417]: the “Fold Act. (percent maximum fold activation)” value under setting [1] is given as “A (Fold activation >200%)”. Moreover, the EC1.5 under setting [2] is 1000 to 25000 nM.

For the compound `O=C(Nc1cccc2[nH]c(-c3ccc(Cl)cc3C(F)(F)F)nc12)c1cccnc1` [Compound 418], the “Fold Act. (percent maximum fold activation)” value under setting [1] is listed as “A (Fold activation >200%)”. Further, the EC1.5 under setting [2] is 1000 to 25000 nM.

On to `O=C(Nc1cccc2[nH]c(-c3ccc(Cl)cc3C(F)(F)F)nc12)c1cnccn1` [Compound 419], for which, under setting [1], the “Fold Act. (percent maximum fold activation)” value was “A (Fold activation >200%)”. In addition, the EC1.5 under setting [2] is 1000 to 25000 nM.

Take `O=C(NCc1ccccn1)c1cccc2[nH]c(-c3ccccc3C(F)(F)F)nc12` [Compound 420]: the “Fold Act. (percent maximum fold activation)” value under setting [1] is on record as “A (Fold activation >200%)”. Further, the EC1.5 under setting [2] was in the range of 1000 to 25000 nM.

Turning to `O=C(NC1CCOCC1)c1cccc2[nH]c(-c3ccccc3C(F)(F)F)nc12` [Compound 421], under setting [1], the “Fold Act. (percent maximum fold activation)” value is “B (Fold Activation <200%)”. Besides, under setting [2], the EC1.5 is above 25000 nM.

Take `Cc1cc(C)nc(NC(=O)c2cccc3[nH]c(-c4ccnn4-c4ccccc4)nc23)c1` [Compound 422]: under setting [1], the “Fold Act. (percent maximum fold activation)” value was “A (Fold activation >200%)”. The EC1.5 under setting [2] is below 1000 nM.

For `Cc1cc(NC(=O)c2cccc3[nH]c(-c4ccnn4-c4ccccc4)nc23)n(C)n1` [Compound 423], under setting [1], the “Fold Act. (percent maximum fold activation)” value is given as “A (Fold activation >200%)”. Also, the EC1.5 under setting [2] lay in the range of 1000 to 25000 nM.

`O=C1COc2ccc(-c3nc4c(C(=O)Nc5nccs5)cccc4[nH]3)cc2N1` [Compound 424]: the “Fold Act. (percent maximum fold activation)” value under setting [1] is “B (Fold Activation <200%)”. Further, under setting [2], the EC1.5 is below 1000 nM.

Regarding `CCCN1CCCc2ccc(-c3nc4c(C(=O)Nc5nccs5)cccc4[nH]3)cc21` [Compound 425], the “Fold Act. (percent maximum fold activation)” value under setting [1] is “A (Fold activation >200%)”. Besides, under setting [2], the EC1.5 was 1000 to 25000 nM.

With `O=C(Nc1nccs1)c1cccc2[nH]c(-c3cccc(OC4CCNCC4)c3)nc12` [Compound 426], under setting [1], the “Fold Act. (percent maximum fold activation)” value is listed as “A (Fold activation >200%)”. For the same compound, the EC1.5 under setting [2] was below 1000 nM.

Turning to `O=C(Nc1nccs1)c1cccc2[nH]c(-c3cccc4c3OC(F)(F)O4)nc12` [Compound 427], the “Fold Act. (percent maximum fold activation)” value under setting [1] is recorded as “A (Fold activation >200%)”. Besides, the EC1.5 under setting [2] was below 1000 nM.

On to `O=C(Nc1nccs1)c1cccc2[nH]c(-c3ccccc3OC3CCNCC3)nc12` [Compound 428, 2-(2-(piperidin-4-yloxy)phenyl)-N-(thiazol-2-yl)-1H-benzo[d]imidazole-4-carboxamide], for which the “Fold Act. (percent maximum fold activation)” value under setting [1] is “A (Fold activation >200%)”. Further, the EC1.5 under setting [2] was below 1000 nM.
